Data on 66 molecules can be found in patent US9393221B2, “Methods and compounds for reducing intracellular lipid storage” (THE GENERAL HOSPITAL CORPORATION, priority 2011, dated 2016).

Structures can show the parent of a compound that is named as a salt.

The first test has as its system ATGL-KO iPSCs. Description: High throughput iPSC chemical screening, Oil Red O (ORO) lipid accumulation. As to Z-score: test concentration or dose not given here. It counts as cell-based, mouse.
Details: not given
As to `CN[C@H](CC(C)C)C(=O)N[C@H]1C(=O)N[C@@H](CC(N)=O)C(=O)N[C@H]2C(=O)N[C@H]3C(=O)N[C@H](C(=O)N[C@H](C(=O)O)c4cc(O)cc(O)c4-c4cc3ccc4O)[C@H](O)c3ccc(c(Cl)c3)Oc3cc2cc(c3O[C@@H]2O[C@H](CO)[C@@H](O)[C@H](O)[C@H]2O[C@H]2C[C@](C)(N)[C@H](O)[C@H](C)O2)Oc2ccc(cc2Cl)[C@H]1O` [Vancomycin hydrochloride], the Z-score was −0.5906.
Same read-out and setting: to `CC(C)(C)CC(C)(C)c1ccc(OCCOCC[N+](C)(C)Cc2ccccc2)cc1` [Benzethonium chloride] belongs 8.105.

Staying with this test, now noted: glycolytic switch compounds.
Regarding `CN(C/C=C/c1ccccc1)Cc1cccc2ccccc12` [Naftifine hydrochloride], the “Rank in normalized ORO score from screen” value was determined as 383.

Staying with this test, now noted: normalized ORO level vs DMSO-treated cells; compound present during 7 days differentiation, 96-well; negative = decrease in lipid accumulation.
`CN(C)c1ccc(O)c2c1C[C@H]1C[C@H]3[C@H](N(C)C)C(O)=C(C(N)=O)C(=O)[C@@]3(O)C(O)=C1C2=O` [Minocycline hydrochloride]: the Z-score was determined as 5.776.
Still for that read-out and setting: to `COc1nc(C)nc(Cl)c1N=C1NCCN1` [Moxonidine] belongs −0.6893.
For `Cc1ccc(S(=O)(=O)NC(=O)NN2CCCCCC2)cc1` [Tolazamide], the Z-score was found to be 1.554.
`COc1ccc2cc([C@@H](C)C(=O)[O-])ccc2c1.[Na+]` [(R)-Naproxen sodium salt] came in with a Z-score of 2.243.
The same measure, in the same setting: to `CCC(=O)[C@@]1(C)[C@H](C)C[C@H]2[C@@H]3CCC4=CC(=O)C=C[C@]4(C)[C@H]3[C@@H](O)C[C@@]21C` [Rimexolone] belongs −0.4134.
Consider `CCn1nc(C(=O)O)c(=O)c2cc3c(cc21)OCO3` [Cinoxacin], for which the Z-score was 0.8009.
Regarding `CCN1C[C@]2(C)CC[C@H](OC)[C@@]34C1[C@]1(OCO[C@@]15C[C@H](OC)[C@H]1C[C@]3(O)[C@@H]5[C@H]1OC)[C@@H](OC(C)=O)[C@H]24` [Deltaline], the Z-score was −1.2966.
On the same count and under the same terms, to `OCCN(CCO)c1nc(N2CCCCC2)c2nc(N(CCO)CCO)nc(N3CCCCC3)c2n1` [Dipyridamole] belongs 0.4282.
Still for that read-out and setting: to `CN1[C@@H](CC(=O)c2ccccc2)CCC[C@H]1C[C@H](O)c1ccccc1.Cl` [Lobeline alpha (−) hydrochoride] belongs −0.5438; to `OCCOCCN1CCN(C(c2ccccc2)c2ccc(Cl)cc2)CC1` (stereo not shown) [Hydroxyzine dihydrochloride], −0.9071; to `NC[C@H]1CC[C@H](C(=O)O)CC1` [Tranexamic acid], 0.05824.
The same measure, in the same setting: to `CCOc1ccc(NC(C)=O)cc1` [Phenacetin] belongs 0.5; to `CCn1cc(C(=O)O)c(=O)c2ccc(C)nc21` [Nalidixic acid sodium salt hydrate], −0.4868; to `N=C(N)NC(=O)c1nc(Cl)c(N)nc1N` [Amiloride hydrochloride dihydrate], 1.955.
Molecule `CNCC(O)c1ccc(OC(=O)C(C)(C)C)c(OC(=O)C(C)(C)C)c1` (stereo not shown) [Dipivefrin hydrochloride] registered a Z-score of 1.363.
On the same count and under the same terms, to Thioproperazine dimesylate belongs −0.4051; to `Cc1scc2c1N(C(=O)CN1CCN(C)CC1)c1ccccc1NC2=O` [Telenzepine dihydrochloride], 0.2257; to `CC1(C)O[C@@H]2C[C@H]3[C@@H]4CCC5=CC(=O)CC[C@]5(C)[C@@]4(F)[C@@H](O)C[C@]3(C)[C@]2(C(=O)CCl)O1` [Halcinonide], −0.7085.
Same read-out and setting: to `N#Cc1ccc(C(c2ccc(C#N)cc2)n2cncn2)cc1` [Letrozole] belongs 0.6693; to `C[C@@H]1NC(=O)NC1=O` [Methylhydantoin-5-(L)], −0.97; to `Fc1ccc([C@@H]2CCNC[C@H]2COc2ccc3c(c2)OCO3)cc1` [Paroxetine Hydrochloride], −0.9182.
The same measure, in the same setting: to `CCC1=C(C)CN(C(=O)NCCc2ccc(S(=O)(=O)NC(=O)N[C@H]3CC[C@H](C)CC3)cc2)C1=O` [Glimepiride] belongs 0.1043.
`C=CCc1ccccc1OCC(O)CNC(C)C` (stereo not shown) [Alprenolol hydrochloride] came in with a Z-score of 0.9239.
On the same count and under the same terms, to `CCOC(=O)OC(C)OC(=O)[C@@H]1N2C(=O)[C@@H](NC(=O)[C@H](N)c3ccccc3)[C@H]2SC1(C)C` (stereo partly shown) [Bacampicillin hydrochloride] belongs 0.09702; to `CC[C@@H](CO)NCCN[C@@H](CC)CO` [Ethambutol dihydrochloride], −0.6303.
On the same count and under the same terms, to `CN(N=O)C(=O)N[C@H]1C(O)O[C@H](CO)[C@@H](O)[C@@H]1O` (mixture of isomers) [Streptozotocin] belongs 0.0088; to Pridinol methanesulfonate salt, 1.97; to `Cn1c(=O)c2c(ncn2CCO)n(C)c1=O` [Etofylline], −0.8406.
The same measure, in the same setting: to `CC1=C(C(=O)O)N2C(=O)[C@@H](NC(=O)[C@H](N)c3ccccc3)[C@H]2SC1` [Cephalexin monohydrate] belongs −1.1486.
`CN1[C@@H]2CC[C@H]1C[C@@H](OC(=O)C(CO)c1ccccc1)C2` (stereo partly shown) [Atropine sulfate monohydrate] displayed a Z-score of 1.183.
On the same count and under the same terms, to `CCCCC[C@H](O)/C=C/[C@@H]1[C@@H](C/C=C\CCCC(=O)O)[C@@H](O)C[C@H]1O` [Dinoprost trometamol] belongs 0.7612.
Still for that read-out and setting: to `C[N+]1(CCCCC[N+]2(C)CCCC2)CCCC1.O=C([O-])C(O)C(O)C(=O)O.O=C([O-])C(O)C(O)C(=O)O` [Pentolinium bitartrate] belongs −0.9629; to `CC(=O)N[C@@H](CC(=O)N[C@@H](CCC(=O)O)C(=O)O)C(=O)O` [Spaglumic acid], 0.9666; to `Clc1ccc(C(Cn2ccnc2)OCc2c(Cl)cccc2Cl)c(Cl)c1` (stereo not shown) [Isoconazole], −1.2562.
On the same count and under the same terms, to `CNC(C)CCC=C(C)C.CNC(C)CCC=C(C)C.O=C(O)[C@@H](O)[C@H](O)[C@H](O)[C@@H](O)C(=O)O` [Isometheptene mucate] belongs 0.6197; to `CC(COc1ccccc1)NC(C)C(O)c1ccc(O)cc1` (stereo not shown) [Isoxsuprine hydrochloride], 0.3014.
Consider `C[C@H](CCC(=O)O)[C@H]1CC[C@H]2[C@@H]3[C@H](O)C[C@@H]4C[C@H](O)CC[C@]4(C)[C@H]3CC[C@]12C` [Chenodiol], for which the Z-score is −1.6767.
Same read-out and setting: to `Cn1c(=O)c2[nH]cnc2n(C)c1=O` [Aminophylline] belongs −1.0552; to `CCOc1ccc(Cc2nccc3cc(OCC)c(OCC)cc23)cc1OCC` [Ethaverine hydrochloride], 17.3528; to `Oc1ccc(OCc2ccccc2)cc1` [Monobenzone], −1.7289.
The same measure, in the same setting: to `Cc1cc(CC(=O)O)n(C)c1C(=O)c1ccc(Cl)cc1` [Zomepirac sodium salt] belongs 0.8794; to `Cc1ccc(/C(=C\CN2CCCC2)c2ccccn2)cc1` [Triprolidine hydrochloride], −1.0644.
Still for that read-out and setting: to `CCCC(C(=O)OCCN(CC)CC)(c1ccccc1)c1ccccc1` [Proadifen hydrochloride] belongs −1.1876.
`CC(C(=O)O)c1ccc(-c2ccccc2)c(F)c1` (stereo not shown) [Flurbiprofen] came in with a Z-score of −1.4.
Same read-out and setting: to `O=C(O)CCCC[C@@H]1SC[C@@H]2NC(=O)N[C@@H]21` [Biotin] belongs 0.1016.
As to `CC[C@H](C)[C@H]1O[C@]2(CC[C@@H]1C)C[C@@H]1C[C@@H](C/C=C(\C)[C@@H](O[C@H]3C[C@H](OC)[C@@H](O[C@H]4C[C@H](OC)[C@@H](O)[C@H](C)O4)[C@H](C)O3)[C@@H](C)/C=C/C=C3\CO[C@@H]4[C@H](O)C(C)=C[C@@H](C(=O)O1)[C@]34O)O2` [Ivermectin], the Z-score is given as 0.9419.
Butirosin disulfate salt gave a Z-score of 0.2121.
Same read-out and setting: to `CN(C/C=C/c1ccccc1)Cc1cccc2ccccc12` [Naftifine hydrochloride] belongs −0.6354.
Still for that read-out and setting: to `CC(=O)c1ccc2c(c1)N(CCCN(C)C)c1ccccc1S2.O=C(O)/C=C\C(=O)O` [Acetopromazine maleate salt] belongs −0.5926; to `COc1cc(C)nc(-n2nc(C)cc2OC)n1` [Epirizole], −0.7031; to `CN1C(C)(C)CCCC1(C)C` [Pempidine tartrate], −0.8069.
Same read-out and setting: to `CN1CCC2(C)c3cc(O)ccc3N(C)C12.O=C(O)/C=C/C(=O)O` (single isomer, unassigned; (-)) [(−)-Eseroline fumarate salt] belongs −0.478; to `CNCCC(Oc1ccc(C(F)(F)F)cc1)c1ccccc1` (stereo not shown) [Fluoxetine hydrochloride], −1.0533; to `CN(Cc1cnc2nc(N)nc(N)c2n1)c1ccc(C(=O)N[C@@H](CCC(=O)O)C(=O)O)cc1` (racemic) [Amethopterin (R,S)], 15.6786.
In turn, `NC(=NCc1ccccc1)NC(=O)c1nc(Cl)c(N)nc1N` [Benzamil hydrochloride] gave a Z-score of −1.083.
As for `CC(CCc1ccccc1)NCC(O)c1ccc(O)c(C(N)=O)c1` (stereo not shown) [Labetalol hydrochloride], the Z-score is on record as −1.5017.
Still for that read-out and setting: to `Nc1nc(=O)c2c([nH]1)NCC(CNc1ccc(C(=O)N[C@@H](CCC(=O)[O-])C(=O)[O-])cc1)N2C=O.[Ca+2]` (stereo partly shown) [Folinic acid calcium salt] belongs −0.7409.
On the same count and under the same terms, to `O=C(O)c1ccccc1Nc1cccc(C(F)(F)F)c1` [Flufenamic acid] belongs −0.8139; to `Cc1c(O)c(=O)n(-c2ccccc2)n1C` [Antipyrine, 4-hydroxy], 0.52.
The same measure, in the same setting: to `O=C(/C=C/C=C/c1ccc2c(c1)OCO2)N1CCCCC1` [Piperine] belongs 1.588; to Trimipramine maleate salt, −0.138.
For `CCCCNc1ccc(C(=O)OCCOCCOCCOCCOCCOCCOCCOCCOCCOC)cc1` [Benzonatate], the Z-score is listed as 0.06563.
Still for that read-out and setting: to `NS(=O)(=O)c1cc2c(cc1Cl)NC(CC1CCCC1)NS2(=O)=O` (stereo not shown) [Cyclopenthiazide] belongs −1.4107.
Same read-out and setting: to `CCOc1cc(CC(=O)N[C@@H](CC(C)C)c2ccccc2N2CCCCC2)ccc1C(=O)O` [Repaglinide] belongs −0.2231.
